From patent US20140315972A1, “RS)-2-(2-oxo-4-phenylpyrrolidin-1-yl)acetamide compound having modulatory activity with a commensurate effect, pharmaceutical substance (variants) and its application, composition (variants) thereof” (priority 2011, published 2014)
Marks after values point to notes of the source that are not given here.

Legend:
rats [1] = assay: Scopolamine-induced CRPA amnesia in rats 30-35 days of age; type: in vivo
Excerpt: Phenotropil has a pronounced mnemotropic and nootropic activity. The results of the study of the antiamnestic activity (classical technique in the equipment manufactured by Lafayette Instrument Co, USA) in the retrograde amnesia of the passive avoidance conditional reflex (CRPA) induced by maximal electroshock (MES) and scopolamine in male rats (180-250 g) are shown in Table 7. […] Taking into account the studies using the open field and cross maze tests, the nootropic action component of the modulatory drug not only may be more pronounced, but is broader in manifestation depending on the type of disorder or in unfamiliar situational conditions. The pronounced nootropic activity of Phenotropil (100, 200, 300 mg/kg) also manifests in rat pups of both sexes 30-35 days of age (Table 7.1) after scopolamine-induced CRPA amnesia.
In studying immature animals, it must be considered that to generate CRPA it is required, as was established, to apply higher educational incentives (0.6 mA, 8 pulses vs 5 pulses at 0.45 mA in adult rats) with re-training (after 48 hours). Development of amnesia also requires a higher dose of scopolamine (1.3 mg/kg) in rat pups. […] Phenotropil has not only a psychomodulatory (Ψ-modulatory) activity but also a Ψ-operandmodulatory activity given that the mnemotropic effect is associated with the expression of specific proteins and genes involved in memory, attention and learning.

rats [2] = assay: Ischemic stroke (middle cerebral artery occlusion), McGrow scale; type: in vivo
Excerpt: The stroke condition was simulated in male rats (270-320 g) at a local cerebral hemorrhage, as a hemorrhagic stroke (intracerebral post-traumatic hematoma) by the method of A. N. Makarenko et al (1990) and at cerebral ischemia with distal occlusion of the middle cerebral artery (Chen S. T., Hsu C. Y., Hogan E. L., Maricq H., Balentine J. D. A model of focal ischemic stroke in the rat reproducible extensive cortical infarction//Stroke.—1989, V. 17, No 4, p. 738-743) as an ischemic stroke. Phenotropil was injected intraperitoneally at hemorrhagic stroke at 100 mg/kg immediately after surgery, and one hour before and two hours after the surgery (at doses of 100, 200 and 300 mg/kg) at ischemic stroke. Control animals were treated adequately with distilled water.

mice = assay: Tremor caused by arecoline; type: in vivo; conditions: for Duration of tremor: mice, arecoline 25 mg/kg
Excerpt: Studies have been conducted on white outbred male mice (18-24 g), in comparison with the olanzapine (Zyprexa) with intraperitoneal injection.

HSP70 = HSP70 expression in the myocardium (Western blot); type: in vivo, rats; conditions: for increase of NSP70 level in the myocardium vs Ns control: negative stress state; for increase of NSP70 content in the heart vs untreated control: no stress; for HSP 70 in myocardium: Wistar rats
Excerpt: Determination of NSP70 (ng/mg of total protein) was studied in myocardial preparations by Western blot analysis; the results are presented in Table 14.1.

[3] = 100 mg/kg i.p. after MCAO, first day
[4] = 100 mg/kg i.p. after MCAO, second day
[5] = 100 mg/kg i.p. after MCAO, third day
[6] = 100 mg/kg i.p. before MCAO, first day
[7] = 100 mg/kg i.p. before MCAO, second day
[8] = 100 mg/kg i.p. before MCAO, third day
[9] = 200 mg/kg i.p. after MCAO, first day
[10] = 200 mg/kg i.p. after MCAO, second day
[11] = 200 mg/kg i.p. after MCAO, third day
[12] = 200 mg/kg i.p. before MCAO, first day
[13] = 200 mg/kg i.p. before MCAO, second day
[14] = 200 mg/kg i.p. before MCAO, third day
[15] = 300 mg/kg i.p. after MCAO, first day
[16] = 300 mg/kg i.p. after MCAO, second day
[17] = 300 mg/kg i.p. after MCAO, third day
[18] = 300 mg/kg i.p. before MCAO, first day
[19] = 300 mg/kg i.p. before MCAO, second day
[20] = 300 mg/kg i.p. before MCAO, third day

`NC(=O)CN1CC(c2ccccc2)CC1=O` (racemic) [Compound 1, (RS)-2-(2-oxo-4-phenylpyrrolidine-1-yl)acetamide] was tested, and the “LP1 (training)” value (rats [1]; 100 mg/kg) was 7.2 ± 2.8, the “LP2 (at 24 hours)” value (rats [1]; 100 mg/kg) was 25.2 ± 3.8 and the ΔLP (rats [1]; 100 mg/kg) was 18.0 ± 2.9. The “LP1 (training)” value (rats [1]; 200 mg/kg) was 11.0 ± 3.0, the “LP2 (at 24 hours)” value (rats [1]; 200 mg/kg) was 45.2 ± 7.3 and the ΔLP (rats [1]; 200 mg/kg) was 34.2 ± 9.0. For the same compound, the “LP1 (training)” value (rats [1]; 300 mg/kg) was 8.0 ± 3.0, the “LP2 (at 24 hours)” value (rats [1]; 300 mg/kg) was 82.4 ± 4.3 and the ΔLP (rats [1]; 300 mg/kg) was 74.4 ± 3.7. The “animals (out of 10) with circling movements” value (rats [2]; [3]) was 0*, the “animals (out of 10) with lethargy, slowness of functions” value (“animals (out of 10) with lethargy” for short) (rats [2]; [3]) was 4* and the “animals (out of 10) with tremor” value (rats [2]; [3]) was 2*. For the same compound, the “animals (out of 10) with unilateral hemiptosis” value (rats [2]; [3]) was 4, the “animals (out of 10) with circling movements” value (rats [2]; [4]) was 0* and the “animals (out of 10) with lethargy” value (rats [2]; [4]) was 3*. For the same compound, the “animals (out of 10) with tremor” value (rats [2]; [4]) was 0*, the “animals (out of 10) with unilateral hemiptosis” value (rats [2]; [4]) was 5 and the “animals (out of 10) with circling movements” value (rats [2]; [5]) was 0. For the same compound, the “animals (out of 10) with lethargy” value (rats [2]; [5]) was 2*, the “animals (out of 10) with tremor” value (rats [2]; [5]) was 0 and the “animals (out of 10) with unilateral hemiptosis” value (rats [2]; [5]) was 3. For the same compound, the “animals (out of 10) with circling movements” value (rats [2]; [6]) was 0*, the “animals (out of 10) with lethargy” value (rats [2]; [6]) was 2* and the “animals (out of 10) with tremor” value (rats [2]; [6]) was 2*. The “animals (out of 10) with unilateral hemiptosis” value (rats [2]; [6]) was 4, the “animals (out of 10) with circling movements” value (rats [2]; [7]) was 0* and the “animals (out of 10) with lethargy” value (rats [2]; [7]) was 1*. The “animals (out of 10) with tremor” value (rats [2]; [7]) was 0*, the “animals (out of 10) with unilateral hemiptosis” value (rats [2]; [7]) was 5 and the “animals (out of 10) with circling movements” value (rats [2]; [8]) was 0. The “animals (out of 10) with lethargy” value (rats [2]; [8]) was 1*, the “animals (out of 10) with tremor” value (rats [2]; [8]) was 0 and the “animals (out of 10) with unilateral hemiptosis” value (rats [2]; [8]) was 3. The “animals (out of 10) with circling movements” value (rats [2]; [9]) was 0*, the “animals (out of 10) with lethargy” value (rats [2]; [9]) was 4* and the “animals (out of 10) with tremor” value (rats [2]; [9]) was 2*. The “animals (out of 10) with unilateral hemiptosis” value (rats [2]; [9]) was 3, the “animals (out of 10) with circling movements” value (rats [2]; [10]) was 0* and the “animals (out of 10) with lethargy” value (rats [2]; [10]) was 3*. The “animals (out of 10) with tremor” value (rats [2]; [10]) was 0*, the “animals (out of 10) with unilateral hemiptosis” value (rats [2]; [10]) was 4 and the “animals (out of 10) with circling movements” value (rats [2]; [11]) was 0. For the same compound, the “animals (out of 10) with lethargy” value (rats [2]; [11]) was 1*, the “animals (out of 10) with tremor” value (rats [2]; [11]) was 0 and the “animals (out of 10) with unilateral hemiptosis” value (rats [2]; [11]) was 3. For the same compound, the “animals (out of 10) with circling movements” value (rats [2]; [12]) was 0*, the “animals (out of 10) with lethargy” value (rats [2]; [12]) was 3* and the “animals (out of 10) with tremor” value (rats [2]; [12]) was 3*. The “animals (out of 10) with unilateral hemiptosis” value (rats [2]; [12]) was 4, the “animals (out of 10) with circling movements” value (rats [2]; [13]) was 0* and the “animals (out of 10) with lethargy” value (rats [2]; [13]) was 2*. The “animals (out of 10) with tremor” value (rats [2]; [13]) was 0*, the “animals (out of 10) with unilateral hemiptosis” value (rats [2]; [13]) was 4 and the “animals (out of 10) with circling movements” value (rats [2]; [14]) was 0. The “animals (out of 10) with lethargy” value (rats [2]; [14]) was 0*, the “animals (out of 10) with tremor” value (rats [2]; [14]) was 0 and the “animals (out of 10) with unilateral hemiptosis” value (rats [2]; [14]) was 3. For the same compound, the “animals (out of 10) with circling movements” value (rats [2]; [15]) was 0*, the “animals (out of 10) with lethargy” value (rats [2]; [15]) was 4* and the “animals (out of 10) with tremor” value (rats [2]; [15]) was 3*. The “animals (out of 10) with unilateral hemiptosis” value (rats [2]; [15]) was 3, the “animals (out of 10) with circling movements” value (rats [2]; [16]) was 0* and the “animals (out of 10) with lethargy” value (rats [2]; [16]) was 2*. For the same compound, the “animals (out of 10) with tremor” value (rats [2]; [16]) was 0*, the “animals (out of 10) with unilateral hemiptosis” value (rats [2]; [16]) was 5 and the “animals (out of 10) with circling movements” value (rats [2]; [17]) was 0. For the same compound, the “animals (out of 10) with lethargy” value (rats [2]; [17]) was 1*, the “animals (out of 10) with tremor” value (rats [2]; [17]) was 0 and the “animals (out of 10) with unilateral hemiptosis” value (rats [2]; [17]) was 3. The “animals (out of 10) with circling movements” value (rats [2]; [18]) was 0*, the “animals (out of 10) with lethargy” value (rats [2]; [18]) was 2* and the “animals (out of 10) with tremor” value (rats [2]; [18]) was 2*. The “animals (out of 10) with unilateral hemiptosis” value (rats [2]; [18]) was 4, the “animals (out of 10) with circling movements” value (rats [2]; [19]) was 0* and the “animals (out of 10) with lethargy” value (rats [2]; [19]) was 1*. For the same compound, the “animals (out of 10) with tremor” value (rats [2]; [19]) was 0*, the “animals (out of 10) with unilateral hemiptosis” value (rats [2]; [19]) was 5 and the “animals (out of 10) with circling movements” value (rats [2]; [20]) was 0. The “animals (out of 10) with lethargy” value (rats [2]; [20]) was 0*, the “animals (out of 10) with tremor” value (rats [2]; [20]) was 0 and the “animals (out of 10) with unilateral hemiptosis” value (rats [2]; [20]) was 3. For the same compound, the “reduction of duration of tremor” value (mice; 200 mg/kg) was 63%, the “reduction of duration of tremor” value (mice; 300 mg/kg) was 50% and the Duration of tremor (mice; 200 mg/kg) was 153 ± 27 s. The Duration of tremor (mice; 300 mg/kg) was 208 ± 36 s, the “increase of NSP70 level in the myocardium vs Ns control” value (“increase of NSP70 level” below) (HSP70; 25 mg/kg) was 38% and the “increase of NSP70 content in the heart vs untreated control” value (from here on “increase of NSP70 content in the heart”) (HSP70; 25 mg/kg) was 65%. The “increase of NSP70 level” value (HSP70; 50 mg/kg) was 41.4%, the “increase of NSP70 content in the heart” value (HSP70; 50 mg/kg) was 82% and the “increase of NSP70 level” value (HSP70; 100 mg/kg) was 62%. For the same compound, the “increase of NSP70 content in the heart” value (HSP70; 100 mg/kg) was 73%, the “increase of NSP70 level” value (HSP70; 300 mg/kg) was 89.7% and the “increase of NSP70 content in the heart” value (HSP70; 300 mg/kg) was 273%. For the same compound, the “HSP 70 in myocardium” value (HSP70; 25 mg/kg i.p., normal conditions) was 0.18 ± 0.011 ng/mg total protein, the “HSP 70 in myocardium” value (HSP70; 50 mg/kg i.p., normal conditions) was 0.20 ± 0.014 ng/mg total protein and the “HSP 70 in myocardium” value (HSP70; 100 mg/kg i.p., normal conditions) was 0.19 ± 0.008 ng/mg total protein. For the same compound, the “HSP 70 in myocardium” value (HSP70; 300 mg/kg i.p., normal conditions) was 0.41 ± 0.016 ng/mg total protein, the “HSP 70 in myocardium” value (HSP70; Ns + 25 mg/kg i.p.) was 0.40 ± 0.02 ng/mg total protein and the “HSP 70 in myocardium” value (HSP70; Ns + 50 mg/kg i.p.) was 0.41 ± 0.03 ng/mg total protein. For the same compound, the “HSP 70 in myocardium” value (HSP70; Ns + 100 mg/kg i.p.) was 0.47 ± 0.02 ng/mg total protein and the “HSP 70 in myocardium” value (HSP70; Ns + 300 mg/kg i.p.) was 0.55 ± 0.03 ng/mg total protein.
